# In US20230135215A1, “COMPOUNDS AS CDK2/4/6 INHIBITORS” (Fochon Biosciences, Ltd., priority 2020, published 2023):
# What was measured:
# [1] = system: HCC1806 cells; test: Cell proliferation assay (MTS), HCC1806 (CDK4/6 independent) cells; format: cell-based; details: Homo sapiens, HCC1806 (CDK4/6 independent) cell proliferation inhibition, 120 h incubation, absorbance 490 nm
# From the text: (§1) MTS testing kit was purchased from Promega (Madison, Wis., USA). The RPMI-1640, DMEM, Fetal bovine serum and Penicillin-Streptomycin were purchased from BI (Biological Industries, Beit Haemek, Israel). Dimethyl sulfoxide (DMSO) was purchased from Sigma (St. Louis, Mo., USA).
# (§2) To investigate whether a compound is able to inhibit the activity of CDK2/4/6 in cells, we developed a mechanism-based assay using HCC1806 (CDK4/6 independent) and Hs68 (CDK4/6 dependent) cell lines. In this assay, inhibition of CDK2/4/6 was detected by the cell proliferation inhibition of HCC1806 and Hs68 cells. HCC806 and HS68 cells cultured in PRMI-1640 and DMEM supplemented with 10% fetal bovine serum respectively to 40-80% confluence were collected and plated into 96-well plates at desired cell density of 5×10^3/mL. Plates were incubated at 37° C., with 5% CO2 for 24 h. Compounds were serially diluted and added to the plates with the final concentrations as 10000, 3333.3, 1111.1, 370.4, 123.5, 41.2, 13.7, 4.6 and 1.5 nM. Plates were incubated at 37° C., with 5% CO2 for 120 h. A mixture of 20 μl MTS/100 μl medium were added to each well and the plates were incubated at 37° C., with 5% CO2 for exactly 2 h. The absorbance was measured by a microplate reader at 490 nm. IC50 was calculated using GraphPad Prism 5.0 software.
# [2] = system: Hs68 cells; test: Cell proliferation assay (MTS), Hs68 (CDK4/6 dependent) cells; format: cell-based; details: Homo sapiens, Hs68 (CDK4/6 dependent) cell proliferation inhibition, 120 h incubation, absorbance 490 nm
# From the text: as §1, §2
Compound,IC50 [1] [nM],IC50 [2] [nM]
"CS(=O)(=O)N1CCC(Nc2ncc3ccc(=O)n([C@@H]4CCCC45CC5)c3n2)CC1 [Example 23, (R)-2-((1-(methylsulfonyl)piperidin-4-yl)amino)-8-(spiro[2.4]heptan-4-yl)pyrido[2,3-d]pyrimidin-7(8H)-one]",150,489
"Cc1cc2cnc(NC3CCN(S(C)(=O)=O)CC3)nc2n(C2CCCC23CC3)c1=O (stereo not drawn) [Example 2, 6-Methyl-2-((1-(methylsulfonyl)piperidin-4-yl)amino)-8-(spiro[2,4]heptan-4-yl)pyrido[2,3-d]pyrimidin-7(8H)-one]",–,322
"CS(=O)(=O)N1CCC(Nc2ncc3cc(Cl)c(=O)n(C4CCCC45CC5)c3n2)CC1 (stereo not drawn) [Example 7, 6-Chloro-2-((1-(methylsulfonyl)piperidin-4-yl)amino)-8-(spiro[2,4]heptan-4-yl)pyrido[2,3-d]pyrimidin-7(8H)-one]",308,233
"CS(=O)(=O)N1CCC(Nc2ncc3ccc(=O)n([C@H]4CCCC45CC5)c3n2)CC1 [Example 24, (S)-2-((1-(methylsulfonyl)piperidin-4-yl)amino)-8-(spiro[2.4]heptan-4-yl)pyrido[2,3-d]pyrimidin-7(8H)-one]",78,437
"CS(=O)(=O)N1CCC(Nc2ncc3cc(Br)c(=O)n(C4CCCC45CC5)c3n2)CC1 (stereo not drawn) [Example 8, 6-Bromo-2-((1-(methylsulfonyl)piperidin-4-yl)amino)-8-(spiro[2,4]heptan-4-yl)pyrido[2,3-d]pyrimidin-7(8H)-one]",305,105

# Now from value to compound, other results behind:
IC50 [1] [nM],Compound,IC50 [2] [nM]
379,"CS(=O)(=O)N1CCC(Nc2ncc3ccc(=O)n(C4CCCC45CC5)c3n2)CC1 (stereo not drawn) [Example 1, 2-((1-(Methylsulfonyl)piperidin-4-yl)amino)-8-(spiro[2,4]heptan-4-yl)pyrido[2,3-d]pyrimidin-7(8H)-one]",318
211,"CS(=O)(=O)N1CCC(Nc2ncc3cc(C(F)F)c(=O)n([C@H]4CCCC45CC5)c3n2)CC1 [Example 20, (S)-6-(difluoromethyl)-2-((1-(methylsulfonyl)piperidin-4-yl)amino)-8-(spiro[2.4]heptan-4-yl)pyrido[2,3-d]pyrimidin-7(8H)-one]",–
233,"CS(=O)(=O)N1CCC(Nc2ncc3cc(C(F)F)c(=O)n(C4CCCC45CC5)c3n2)CC1 (stereo not drawn) [Example 18, 6-(difluoromethyl)-2-((1-(methylsulfonyl)piperidin-4-yl)amino)-8-(spiro[2.4]heptan-4-yl)pyrido[2,3-d]pyrimidin-7(8H)-one]",–
318,"CS(=O)(=O)N1CCC(Nc2ncc3cc(F)c(=O)n(C4CCCC45CC5)c3n2)CC1 (stereo not drawn) [Example 22, 6-fluoro-2-((1-(methylsulfonyl)piperidin-4-yl)amino)-8-(spiro[2.4]heptan-4-yl) pyrido[2,3-d]pyrimidin-7(8H)-one]",–
409,"NS(=O)(=O)N1CCC(Nc2ncc3ccc(=O)n([C@H]4CCCC45CC5)c3n2)CC1 [Example 30, (S)-4-((7-oxo-8-(spiro[2.4]heptan-4-yl)-7,8-dihydropyrido[2,3-d]pyrimidin-2-yl)amino)piperidine-1-sulfonamide]",–
118,"CNS(=O)(=O)N1CCC(Nc2ncc3ccc(=O)n([C@H]4CCCC45CC5)c3n2)CC1 [Example 31, (S)-N-methyl-4-((7-oxo-8-(spiro[2.4]heptan-4-yl)-7,8-dihydropyrido[2,3-d]pyrimidin-2-yl)amino)piperidine-1-sulfonamide]",418
139,"CS(=O)(=O)N1CCC(Nc2ncc3cc(C(F)F)c(=O)n([C@@H]4CCCC45CC5)c3n2)CC1 [Example 19, (R)-6-(difluoromethyl)-2-((1-(methyl-sulfonyl)piperidin-4-yl)amino)-8-(spiro[2.4]heptan-4-yl)pyrido[2,3-d]pyrimidin-7(8H)-one]",–
